The values that follow come from ChEMBL document CHEMBL1154496, “The pharmacophore of a peptoid VEGF receptor 2 antagonist includes both side chain and main chain residues” (Bioorg Med Chem Lett, 2008).

The source made the active and inactive calls. The rule behind the calls is not given here. Square brackets hold non-standard residues; d marks the D form. Peptide text beside a SMILES is read from it. * marks the point of attachment. ξ: configuration not given here. X1 = O=C(O)c1cc(N2C(=O)CC(*)C2=O)ccc1-c1c2ccc(=O)cc-2oc2cc(O)ccc12; Gly(N-piperonyl) = O=C(O)CNCc1ccc2c(c1)OCO2; Nrpe = C[C@@H](NCC(=O)O)c1ccccc1; Nleu = CC(C)CNCC(=O)O; Nlys = NCCCCNCC(=O)O; ξC = NC(CS)C(=O)O

Vascular endothelial growth factor receptor 2 (Homo sapiens), sequence (P35968 whole entry, the tested form may be a part): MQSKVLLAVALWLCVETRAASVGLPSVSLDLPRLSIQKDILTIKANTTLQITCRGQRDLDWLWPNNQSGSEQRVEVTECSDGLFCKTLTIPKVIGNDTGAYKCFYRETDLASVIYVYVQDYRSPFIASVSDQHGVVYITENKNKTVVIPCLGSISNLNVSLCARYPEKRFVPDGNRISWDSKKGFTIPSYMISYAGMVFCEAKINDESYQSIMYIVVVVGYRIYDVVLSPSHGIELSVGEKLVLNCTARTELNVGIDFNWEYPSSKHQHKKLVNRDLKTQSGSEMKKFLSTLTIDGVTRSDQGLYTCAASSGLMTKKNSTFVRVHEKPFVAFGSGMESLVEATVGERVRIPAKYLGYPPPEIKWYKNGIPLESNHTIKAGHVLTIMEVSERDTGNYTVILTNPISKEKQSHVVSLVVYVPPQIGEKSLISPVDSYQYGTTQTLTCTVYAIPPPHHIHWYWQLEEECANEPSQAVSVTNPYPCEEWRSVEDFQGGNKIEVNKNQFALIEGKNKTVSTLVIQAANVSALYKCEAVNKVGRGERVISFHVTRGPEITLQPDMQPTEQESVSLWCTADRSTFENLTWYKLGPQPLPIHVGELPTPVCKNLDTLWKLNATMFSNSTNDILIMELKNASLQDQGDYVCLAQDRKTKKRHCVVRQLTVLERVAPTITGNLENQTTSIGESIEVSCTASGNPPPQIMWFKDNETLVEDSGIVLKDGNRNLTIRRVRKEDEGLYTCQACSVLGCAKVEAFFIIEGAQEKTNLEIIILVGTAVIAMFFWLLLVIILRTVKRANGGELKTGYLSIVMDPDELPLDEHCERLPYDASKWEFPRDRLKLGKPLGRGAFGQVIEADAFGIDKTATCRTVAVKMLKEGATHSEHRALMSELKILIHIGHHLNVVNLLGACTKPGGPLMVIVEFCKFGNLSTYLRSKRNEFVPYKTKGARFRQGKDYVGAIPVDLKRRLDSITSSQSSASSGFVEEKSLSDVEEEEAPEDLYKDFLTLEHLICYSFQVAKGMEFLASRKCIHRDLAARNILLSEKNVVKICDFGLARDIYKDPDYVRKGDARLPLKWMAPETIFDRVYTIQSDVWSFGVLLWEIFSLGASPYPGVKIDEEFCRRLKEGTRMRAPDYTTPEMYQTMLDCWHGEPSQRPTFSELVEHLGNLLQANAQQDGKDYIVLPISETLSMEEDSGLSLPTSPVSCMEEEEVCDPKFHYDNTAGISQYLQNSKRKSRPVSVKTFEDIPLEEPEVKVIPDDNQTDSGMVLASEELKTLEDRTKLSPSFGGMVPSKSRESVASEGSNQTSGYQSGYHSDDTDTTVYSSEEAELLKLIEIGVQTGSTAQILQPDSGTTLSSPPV

This assay has as its target Vascular endothelial growth factor receptor 2 (Homo sapiens) (UniProt P35968). As to the kind of experiment: Binding affinity to VEGFR2 extracellular domain.
As to `CC(C)CN(CC(=O)N(CCCCN)CC(=O)N(CC(=O)NCC(=O)NCC(=O)NCC(=O)NCC(=O)NCC(=O)NC(CSC1CC(=O)N(c2ccc(-c3c4ccc(=O)cc-4oc4cc(O)ccc34)c(C(=O)O)c2)C1=O)C(N)=O)[C@H](C)c1ccccc1)C(=O)CN` (stereo partly drawn) (H-G[Nleu][Nlys][Nrpe]GGGGG[ξC](X1)-NH2), the outcome was Active. The entry for `CC(C)CN(CC(=O)N(CCCCN)CC(=O)N(CC(=O)N(CC(=O)N(CCCCN)CC(=O)N(CC(=O)N(CCCCN)CC(=O)N(CCCCN)CC(N)=O)CC(C)C)Cc1ccc2c(c1)OCO2)[C@H](C)c1ccccc1)C(=O)CNCCCCN` (H-[Nlys][Nleu][Nlys][Nrpe][Gly(N-piperonyl)][Nlys][Nleu][Nlys][Nlys]-NH2) is “Active”.

Turning to `CC(C)CN(CC(=O)N(CCCCN)CC(=O)N(CC(=O)NC(CSC1CC(=O)N(c2ccc(-c3c4ccc(=O)cc-4oc4cc(O)ccc34)c(C(=O)O)c2)C1=O)C(N)=O)[C@H](C)c1ccccc1)C(=O)CN` (stereo partly drawn) (H-G[Nleu][Nlys][Nrpe][ξC](X1)-NH2), the result was inactive.
